Data from the supplement of paper PMC10307832.

Legend:
Assay in all cases: relative viability (nuclei count vs DMSO), 5 days (fraction); higher = more cells survive
BMX-IN-1 + Alpelisib = compound: C=CC(=O)Nc1cc(-n2c(=O)ccc3cnc4ccc(-c5ccc(NS(C)(=O)=O)cc5)cc4c32)ccc1C [BMX-IN-1] + Cc1nc(NC(=O)N2CCC[C@H]2C(N)=O)sc1-c1ccnc(C(C)(C)C(F)(F)F)c1 [Alpelisib] (partner 2 µM)
Outline: (§1)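 Lung cancer cell lines were pin-tool dosed in 1536-well plates on the day after seeding, with either a lone drug or a fixed anchor-drug dose plus five library-drug doses (not always all listed) in √10 steps. Nuclei were counted on 4× images after 5 days. Relative viability is the ratio of treated-well to vehicle-well nuclei counts, with each value a median of duplicate plates.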

BMX-IN-1 + Dasatinib = compound: C=CC(=O)Nc1cc(-n2c(=O)ccc3cnc4ccc(-c5ccc(NS(C)(=O)=O)cc5)cc4c32)ccc1C [BMX-IN-1] + Cc1nc(Nc2ncc(C(=O)Nc3c(C)cccc3Cl)s2)cc(N2CCN(CCO)CC2)n1 [Dasatinib] (partner 0.075 µM)
Outline: as §1

Ibrutinib + Olaparib = compound: C=CC(=O)N1CCC[C@@H](n2nc(-c3ccc(Oc4ccccc4)cc3)c3c(N)ncnc32)C1 [Ibrutinib] + O=C(c1cc(Cc2n[nH]c(=O)c3ccccc23)ccc1F)N1CCN(C(=O)C2CC2)CC1 [Olaparib] (partner 8 µM)
Outline: as §1

Ibrutinib + Linsitinib = compound: C=CC(=O)N1CCC[C@@H](n2nc(-c3ccc(Oc4ccccc4)cc3)c3c(N)ncnc32)C1 [Ibrutinib] + C[C@]1(O)C[C@@H](c2nc(-c3ccc4ccc(-c5ccccc5)nc4c3)c3c(N)nccn32)C1 [Linsitinib] (partner 1 µM)
Outline: as §1

Cell Line	relative viability (BMX-IN-1 + Alpelisib; first compound 0.02 µM)	relative viability (BMX-IN-1 + Alpelisib; first compound 0.2 µM)	relative viability (BMX-IN-1 + Alpelisib; first compound 0.6325 µM)	relative viability (BMX-IN-1 + Alpelisib; first compound 2 µM)	relative viability (BMX-IN-1 + Dasatinib; first compound 0.02 µM)	relative viability (BMX-IN-1 + Dasatinib; first compound 0.2 µM)	relative viability (BMX-IN-1 + Dasatinib; first compound 0.6325 µM)	relative viability (BMX-IN-1 + Dasatinib; first compound 2 µM)	relative viability (Ibrutinib + Olaparib; first compound 0.005 µM)	relative viability (Ibrutinib + Olaparib; first compound 0.01581 µM)	relative viability (Ibrutinib + Olaparib; first compound 0.05 µM)	relative viability (Ibrutinib + Olaparib; first compound 0.1581 µM)	relative viability (Ibrutinib + Olaparib; first compound 0.5 µM)	relative viability (Ibrutinib + Linsitinib; first compound 0.005 µM)	relative viability (Ibrutinib + Linsitinib; first compound 0.01581 µM)	relative viability (Ibrutinib + Linsitinib; first compound 0.05 µM)	relative viability (Ibrutinib + Linsitinib; first compound 0.1581 µM)	relative viability (Ibrutinib + Linsitinib; first compound 0.5 µM)
NCI-H1651	1.07	1.06	0.943	0.863	0.213	0.515	0.435	0.406	0.193	0.183	0.173	0.176	0.185	0.99	0.765	0.901	0.991	0.927
NCI-H1734	0.668	0.717	0.783	0.652	0.463	0.504	0.476	0.467	0.57	0.629	0.788	0.67	0.592	0.801	0.887	0.885	0.885	0.745
NCI-H1915	1.08	1.03	1.04	1.13	0.351	0.338	0.411	0.302	0.283	0.256	0.257	0.281	0.241	–	1.03	1.12	1.13	1.1
NCI-H2023	0.617	0.675	0.686	0.627	0.767	0.637	0.667	0.682	0.492	0.528	0.457	0.516	0.542	0.601	0.494	0.53	0.596	0.456
NCI-H1755	1.01	1.23	1.06	0.965	0.389	0.452	0.438	0.48	0.921	0.886	0.88	0.926	0.894	1.02	0.92	1.06	1.02	0.903
EPLC-272H	0.973	1.15	1.08	0.94	0.354	0.266	0.393	0.314	0.708	0.597	0.49	0.79	0.455	–	1.07	1.31	1.25	0.771
NCI-H1793	1.14	0.873	0.665	0.563	0.417	0.432	0.479	0.451	0.669	0.562	0.582	0.833	0.4	–	0.66	0.652	0.797	0.509
NCI-H358	0.861	0.881	0.937	0.81	0.166	0.145	0.176	0.135	0.469	0.508	–	0.747	0.248	0.563	0.394	0.355	0.743	0.28
HCC-827	0.95	0.889	1.05	0.946	0.296	0.277	0.371	0.276	0.699	0.667	0.568	0.681	0.216	1.01	0.947	1.01	0.854	0.32
NCI-H2085	0.944	0.981	0.834	0.917	0.246	0.223	0.236	0.227	0.764	0.735	0.736	0.749	0.748	1.04	0.884	0.865	0.895	0.775
LCLC-97TM1	0.283	0.222	0.244	0.294	0.927	0.893	1	0.943	0.383	0.334	0.517	0.498	0.389	0.179	–	0.175	0.2	0.169
EKVX	0.942	0.965	0.951	0.828	0.532	0.474	0.484	0.59	0.691	0.835	0.674	0.935	0.449	0.893	0.944	1.12	1.05	0.613
PC-14	1.08	1.03	0.981	0.983	0.313	0.227	0.339	0.279	0.369	0.318	0.37	0.286	0.265	1	0.949	0.976	0.902	0.462
NCI-H1355	0.906	0.943	0.865	0.786	0.772	0.777	0.768	0.785	–	0.664	0.77	0.73	0.661	–	0.666	0.713	0.885	0.67
NCI-H1792	0.585	0.473	0.579	0.684	–	0.817	0.714	0.862	–	0.506	0.402	0.353	0.379	0.553	0.44	0.506	0.608	0.53
NCI-H2009	1.05	1.33	1.25	1.18	0.303	0.294	0.278	0.271	0.754	0.671	0.771	0.802	0.738	1.21	1.13	1.14	1.23	1.18
HARA	1.04	0.883	0.787	0.846	0.258	0.305	0.342	0.244	0.96	0.712	0.778	0.763	0.384	1.09	0.818	0.751	0.904	–
H3255	0.798	0.657	0.815	0.712	0.363	0.394	0.397	0.33	0.533	0.53	0.516	0.623	0.407	0.925	0.772	0.685	1.06	0.227
